Results taken from BindingDB's records for doi:10.1016/j.ejmech.2014.06.017 (University of Messina, 2014).

Experiment: Inhibition of PGPH-like activity of 20S proteasome in human erythrocytes using Z-Leu-Leu-Glu-AMC as substrate by fluorescence assay

Ki | Structure (SMILES)
690 nM | CC(C)C[C@H](NC(=O)CCn1ccc2ncccc2c1=O)B(O)O
990 nM | CC(C)C[C@H](NC(=O)Cn1ccc2ccccc2c1=O)B(O)O
240 nM | CC(C)C[C@H](NC(=O)CCn1ccc2ccccc2c1=O)B(O)O
1250 nM | COc1cc2ccn(CCC(=O)N[C@@H](CC(C)C)B(O)O)c(=O)c2cc1OC
310 nM | CC(C)C[C@H](NC(=O)Cn1ccc2ccc(Br)cc2c1=O)B(O)O
2040 nM | CC(C)C[C@H](NC(=O)CCn1ccc2ccc(Br)cc2c1=O)B(O)O
